Assay results reported in article PMC6383948, “Evaluation of a class of isatinoids identified from a high-throughput screen of human kinase inhibitors as anti-Sleeping Sickness agents” (PLoS Neglected Tropical Diseases, 2019).
In brackets after ≈: the same amount, converted by molar mass. Read-outs that look alike come from different tables or passages of the source.

Legend:
T. cruzi = test: β-D-Galactosidase transgenic T. cruzi assay (amastigote-infected L6 cells); format: cell-based, T. cruzi Tulahuen C4 strain; settings: Trypanosoma cruzi, 96 h, read-out: T. cruzi pEC50 (converted)
Description: The T. cruzi Tulahuen C4 strain, expressing the β-galactosidase gene (LacZ) and L6 rat skeletal muscle cells, used as host cells, were cultured in RPMI-1640 supplemented with 10% iFBS, 2 mM L-glutamine, 100 U/mL penicillin, and 100 μg/mL streptomycin at 37 °C and 5% CO2.
A Thermo Scientific Multidrop Combi dispenser (MTX Lab Systems, Vienna, VA) was used to dispense 90 μL of T. cruzi amastigote–infected L6 cell culture (4×10^3 infected L6 cells per well) into 96-well Corning assay plates (Corning Inc., Corning, NY) already containing 10 μL of the compounds to be screened and controls. The plates were incubated at 37 °C for 96 h. Then, 30 μL of 100 μM CPRG and 0.1% NP40 diluted in PBS were added to each well, and the plates were incubated for 4 h at 37 °C in the dark. Absorbance at 585 nm was measured in a Vmax kinetic microplate reader ([…]). Compound activities were normalized using the in-plate negative (benznidazole at 10 μg/mL) and positive (0.2% DMSO) growth controls.

Rat hepatocyte CLint = format: in vitro ADME; settings: rat hepatocytes
Description: In vitro intrinsic clearance determined from rat hepatocytes using a standard approach. Following incubation and preparation, the samples are analyzed using LC/MS/MS.

MRC5-SV2 cell line = test: Cytotoxicity assay in MRC5 (resazurin, 48 h); format: cell-based, human; settings: MRC5 toxicity
Description: For dose-response experiments, compound plates were prepared for each analogue by serial 3-fold dilutions in 100% DMSO. Five concentration points (mammalian cytotoxicity) or ten concentration points (parasite growth inhibition), were made in 96-well transparent Nunclon plates. Pentamidine is routinely included in compound plates as internal quality control, and plates are stored sealed at -20 °C for no more than four weeks. Intermediate plates were made as described, adding 95 μL of DMEM complete media to 5 μL of compound per well setting a 5% DMSO amount. Log-phase MRC5 cells were removed from a T-75 TC flask using TrypLE® Express (Thermo®) and dispersed by gentle pipetting. Cell density was adjusted to working concentration in prewarmed DMEM medium: 25,000 cells in 90 μL of culture were plated in 96-well transparent Nunclon plates and let to settle for 24 h at 37 °C and 5% CO2. After settling incubation, 10 μL of fresh made intermediate plate were added per well: final maximal concentration for compounds was 50 μM in 0.5% DMSO per well. […] Fluorescence was read in an Infinite F200 plate reader (Tecan®) at 550 nm (excitation filter) and 590 nm (emission filter). A 4-parameter equation was used to fit the dose-response curves and determination of EC50 by SigmaPlot ® 13.0 software. Assays were performed in duplicate at least twice for positive compounds, to achieve a minimal n=3 per dose response.

L. donovani = test: EC50 in L. donovani (infected THP-1 macrophages, luciferase); format: cell-based, Leishmania donovani MHOM/ET/67/HU3; settings: Leishmania donovani, 72 h, read-out: L. donovani pEC50 (converted)
Description: Leishmania donovani MHOM/ET/67/HU3 cells with the luciferase gene integrated into the parasite genome[1] were grown at 28 °C in RPMI 1640-modified medium (Invitrogen) supplemented with 20% FBS with […] of hygromycin B.
The Human myelomonocytic cell line THP-1 was grown at 37 °C and 5% CO2 in RPMI-1640 supplemented with 10% iFBS, 2 mM […], 100 U/mL penicillin and […] streptomycin. 3 x 10^4 THP-1 cells per well in 96-well plates were differentiated to macrophages with 20 ng/mL of PMA treatment for 48 h followed by 24 h of culture in fresh medium.
Macrophage-differentiated THP-1 cells were infected at a macrophage/parasite ratio of 1/10 with stationary L. donovani promastigotes for 24 h at 35 °C and 5% CO2, and extracellular parasites were removed by washing with PBS. Infected cell cultures were then incubated with different compounds concentrations at 37 °C for 72 h. Luminescence was measured using the Promega kit luciferase assay system (Promega, Madison, WI). Assays were performed in duplicate at least twice, to achieve a minimal n=3 per dose response.

[1] = Human liver microsomal CLint; format: in vitro ADME; settings: for microsomal CLint: human, liver microsomes, read-out: HLM Clint
Description: In vitro intrinsic clearance determined from human liver microsomes using a standard approach. Following incubation and preparation, the samples are analyzed using LC/MS/MS.

[2] = Human plasma protein binding (equilibrium dialysis); format: in vitro ADME; settings: pH 7.4, read-out: PPB (converted)
Description: PPB is determined using equilibrium dialysis (RED device) to separate free from bound compound. The amount of compound in plasma (10 µM initial concentration) and in dialysis buffer (pH 7.4 phosphate buffer) is measured by LC-MS/MS after equilibration at 37 °C in a dialysis chamber. The fraction unbound (fu) is reported.

T. b. brucei = T. b. brucei growth inhibition EC50 assay (resazurin, 72 h); format: cell-based, Trypanosoma brucei brucei Lister 427; settings: for EC50: Trypanosoma brucei
Description: Mid-log phase growth T. b. brucei was diluted to a working cell density of 2,750 cells/mL and 90 μL/well dispensed into 96-well flat-bottom transparent assay plates (Nunc). Ten μL/well from intermediate plates were added. The final top concentration of compounds was 40 μM in 0.4% DMSO per well.
Assay plates were incubated for 72 h at 37°C and 5% CO2. Four hours prior to the end of the incubation, 20 μL of a 440 μM resazurin solution in prewarmed HMI-9 was added to each well and incubated for another 4 h. Fluorescence was then measured in an Infinite F200 plate reader (Tecan) at 550 nm (excitation filter) and 590 nm (emission filter). A 4-parameter equation was employed to fit the dose-response curves and determine of EC50 using the SigmaPlot 13.0 software. Assays were performed in duplicate at least twice, to achieve a minimal n = 3 per dose response.
Bloodstream Trypanosoma brucei brucei Lister 427 was cultured in Hirumi’s modified Iscove’s medium (HMI-9), supplemented with 10% heat-inactivated FBS, at 37 °C and 5% CO2 in T-25 vented flask (Corning®).
For dose-response experiments, compound plates were prepared for each analogue by serial 3-fold dilutions in 100% DMSO. Five concentration points (mammalian cytotoxicity) or ten concentration points (parasite growth inhibition), were made in 96-well transparent Nunclon plates. Pentamidine is routinely included in compound plates as internal quality control, and plates are stored sealed at -20 °C for no more than four weeks.

[3] = Aqueous pH 7.4 solubility; format: physicochemical; settings: pH 7.4 phosphate buffer, 25 °C, 20-24 h, read-out: Aq. Solubility
Description: Compounds are dried down from 10 mM DMSO solutions using centrifugal evaporation technique. Phosphate buffer (0.1 M pH 7.4) added and StirStix inserted in the glass vials, shaking is then performed at a constant temperature of 25 °C for 20-24 h. This step is followed by double centrifugation with a tip wash in between, to ensure that no residues of the dried compound are interfering. The solutions are diluted before analysis and quantification using LC/MS/MS is performed.

[4] = 72 h, resazurin, error within ±0.20 (Table 2) or ±0.08 (Table 3) log units, read-out: T.b.b. pEC50 (converted)
[5] = aqueous buffer, thermodynamic from solid

Row | SMILES | EC50 (T. cruzi) [nM] | hepatocyte CLint (Rat hepatocyte CLint) [µL/min/1e6 cells] | MRC5 pTC50 (MRC5-SV2 cell line) | EC50 (L. donovani) [nM] | HLM Clint ([1]; human liver microsomes) [µL/min/mg] | microsomal CLint [1] [µL/min/mg] | fraction unbound at 10 µM [2] | activity against T. brucei (T. b. brucei) | EC50 (T. b. brucei; [4]) [nM] | EC50 (T. b. brucei; T. brucei, read-out: EC50) [nM] | solubility [3] [µM] | solubility [3, 5] [µM]
1 | CNS(=O)(=O)c1ccc(N/N=C2\C(=O)Nc3cccc(C=C(C)C)c32)cc1 [NEU-4391, (Z)-N-Methyl-4-(2-(4-(2-methylprop-1-en-1-yl)-2-oxoindolin-3-ylidene)hydrazinyl)benzenesulfonamide] | 2240 | 103 | <4.3 | > 5010 | 8.63 | 8.6 | < 0.04 | sub-micromolar activity | 158 | 84 | 4 (≈ 1.54 µg/mL) | –
2 | CNS(=O)(=O)c1ccc(N/N=C2\C(=O)Nc3ccccc32)cc1 [NEU-2124, (Z)-N-Methyl-4-(2-(2-oxoindolin-3-ylidene)hydrazinyl)benzenesulfonamide] | > 10000 | 36.4 | <4.3 | > 10000 | – | 20.3 | 0.02 | – | 5010 | – | > 10 | < 39
3 | CN(C)S(=O)(=O)c1ccc(N/N=C2\C(=O)Nc3ccccc32)cc1 [NEU-2118, (Z)-N,N-Dimethyl-4-(2-(2-oxoindolin-3-ylidene)hydrazinyl)benzenesulfonamide] | > 10000 | 146 | <4.3 | > 10000 | – | 38.2 | 0.01 | – | 1580 | – | – | < 1
